According to publication PMC11474028, “Lipopeptide antibiotics disrupt interactions of undecaprenyl phosphate with UptA” (Proceedings of the National Academy of Sciences of the …, 2024):

How the values were obtained:
[1] = test system: UptA R118A/R119A; assay: Native MS of C55-P binding to UptA double mutant R118A/R119A; design: species or system Bacillus subtilis; conditions: 5 µM protein, 10 µM C55-P, pH 8.02, 0.05% LDAO, 200 mM ammonium acetate, 100 V; mean of three biological replicates
[2] = biological target: UptA (Bacillus subtilis, UniProt O31823); assay: Native MS of phospholipid binding to UptA; conditions: 4 µM UptA with 10 µM lipid (stated for a15:0-i15:0 lipids); mean of three independent replicates
UptA, sequence (O31823 whole entry): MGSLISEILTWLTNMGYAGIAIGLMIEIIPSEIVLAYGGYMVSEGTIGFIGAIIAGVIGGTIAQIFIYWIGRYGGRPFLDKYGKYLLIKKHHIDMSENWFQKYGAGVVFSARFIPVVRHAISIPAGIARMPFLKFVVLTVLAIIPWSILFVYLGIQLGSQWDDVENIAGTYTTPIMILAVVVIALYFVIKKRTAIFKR
Description: Proteins belonging to the DedA family are a widespread family of transporters and are proposed to flip diverse lipids, including carrier lipids and membrane phospholipids. We therefore probed the interaction of UptA with membrane phospholipids to understand whether the latter could modulate its function. For this purpose, we selected anionic phosphatidylglycerols (PG) and zwitterionic phosphatidylethanolamines (PE), representing the major classes of phospholipid headgroups found in B. subtilis ([41], [42]). We recorded mass spectra of solutions containing 4 µM UptA incubated with 10 µM a15:0-i15:0 PE and 10 µM a15:0-i15:0 PG (a15:0, anteiso-pentadecanoic acid; i15:0, iso-pentadecanoic acid). The fatty acid composition of these lipids closely mimics those of native B. subtilis lipids (see below). The resulting spectra display peaks corresponding to UptA in apo and lipid-bound forms in both cases (Fig. 4 A and B). […] We therefore hypothesize that UptA interacts more favorably with PG than with PE.
To verify the lipid binding preference of UptA with more native-like lipids, we prepared lipid extracts from B. subtilis membranes (Materials and Methods). We then incubate an aliquot of the resulting crude lipids (SI Appendix, Fig. S8) with UptA. The spectra yielded peaks assigned to UptA in complex with cardiolipins (~1,326 Da) and a range of phospholipids, predominantly 694 Da, 721 Da, 748 Da, and 776 Da species (Fig. 4 D and E). To identify these lipids, we performed tandem MS/MS, isolating the lipid species and subjecting it to collisional activation. […] The fatty acid fragments are mixed populations, predominantly 15:0-15:0, 15:0-17:0, 16:0-16:0, and 16:0-18:1 (SI Appendix, Fig. S9) which are the typical fatty acids from B. subtilis membrane phospholipids ([42]). We therefore conclude that UptA interacts more favorably with the anionic cardiolipins and phosphatidylglycerols than with the zwitterionic phosphatidylethanolamines in the membrane lipid extracts.
Detailed experimental procedures are provided in SI Appendix. Briefly, UptA (wild type and mutants) was expressed in E. coli C43(DE3) cells (Lucigen) with GFP fusion on the C-terminus and solubilized from the membrane fraction by n-dodecyl-β-D-maltopyranoside (DDM). After purification by affinity chromatography, the GFP was cleaved by TEV protease and removed, and UptA was further purified by size-exclusion chromatography in a buffer containing 20 mM Tris-HCl (pH 8.0), 200 mM NaCl, 0.02% DDM. Before measurements, proteins were buffer-exchanged into 0.05% LDAO, 200 mM ammonium acetate at the desired pH using a centrifugal buffer exchange device (Micro Bio-Spin 6, Bio-Rad). Stock solutions of lipids were prepared from chloroform/methanol solution by evaporating aliquots of known volume in a SpeedVac. After drying, the lipid films were weighed and resuspended to a final concentration of 0.5 mM in 200 mM ammonium acetate and 0.05% LDAO by vertexing. Stock solutions of 0.5 mM amphomycin, aspartocin D, daptomycin, polymyxin B, polymyxin E, and bacitracin were made in the same buffer. All experiments were repeated three times from newly prepared stock solutions. Native mass spectrometry was performed on a Q-Exactive hybrid quadrupole-Orbitrap mass spectrometer (Thermo Fisher Scientific, Bremen, Germany), and lipid identification was performed on an Orbitrap Eclipse Tribrid mass spectrometer (Thermo). […]
Lipid extracts from B. Subtilis
B. subtilis strain 168 (ATCC 23857) was cultivated in […] LB media at 37 °C until OD600 nm 1.2 under aurobic conditions. Cells were harvested by centrifugation at 4,000 g for 20 minutes and resuspended in 20 mM Tris-HCl (pH 8.0), 150 mM NaCl. Cells were lysed by 5-6 passes through a microfluidizer at 20,000 psi. The lysates were clarified by centrifugation at 4,000 g for 10 minutes, and the totoal membrane was pelleted at 120,000 g for 1 h. The membrane pellet was ressupended […]

With `CC(C)=CCC/C(C)=C/CC/C(C)=C/CC/C(C)=C\CC/C(C)=C\CC/C(C)=C\CC/C(C)=C\CC/C(C)=C\CC/C(C)=C\CC/C(C)=C\CC/C(C)=C\COP(=O)(O)O` [C55-P, undecaprenyl phosphate] the “reduction in C55-P binding, R118A/R119A” value [1] was 46% and the “mean relative intensity of UptA in complex with phospholipid, comparison (in words)” value [2] was “more intensely than any of these diacylglycerol phospholipids”.
